Where a name gives a salt, the structure may show the parent alone.
The compounds below were run against hERG (Homo sapiens, UniProt Q12809) (assay: cell-based). Details: not given.
Sequence of hERG (Q12809 whole entry): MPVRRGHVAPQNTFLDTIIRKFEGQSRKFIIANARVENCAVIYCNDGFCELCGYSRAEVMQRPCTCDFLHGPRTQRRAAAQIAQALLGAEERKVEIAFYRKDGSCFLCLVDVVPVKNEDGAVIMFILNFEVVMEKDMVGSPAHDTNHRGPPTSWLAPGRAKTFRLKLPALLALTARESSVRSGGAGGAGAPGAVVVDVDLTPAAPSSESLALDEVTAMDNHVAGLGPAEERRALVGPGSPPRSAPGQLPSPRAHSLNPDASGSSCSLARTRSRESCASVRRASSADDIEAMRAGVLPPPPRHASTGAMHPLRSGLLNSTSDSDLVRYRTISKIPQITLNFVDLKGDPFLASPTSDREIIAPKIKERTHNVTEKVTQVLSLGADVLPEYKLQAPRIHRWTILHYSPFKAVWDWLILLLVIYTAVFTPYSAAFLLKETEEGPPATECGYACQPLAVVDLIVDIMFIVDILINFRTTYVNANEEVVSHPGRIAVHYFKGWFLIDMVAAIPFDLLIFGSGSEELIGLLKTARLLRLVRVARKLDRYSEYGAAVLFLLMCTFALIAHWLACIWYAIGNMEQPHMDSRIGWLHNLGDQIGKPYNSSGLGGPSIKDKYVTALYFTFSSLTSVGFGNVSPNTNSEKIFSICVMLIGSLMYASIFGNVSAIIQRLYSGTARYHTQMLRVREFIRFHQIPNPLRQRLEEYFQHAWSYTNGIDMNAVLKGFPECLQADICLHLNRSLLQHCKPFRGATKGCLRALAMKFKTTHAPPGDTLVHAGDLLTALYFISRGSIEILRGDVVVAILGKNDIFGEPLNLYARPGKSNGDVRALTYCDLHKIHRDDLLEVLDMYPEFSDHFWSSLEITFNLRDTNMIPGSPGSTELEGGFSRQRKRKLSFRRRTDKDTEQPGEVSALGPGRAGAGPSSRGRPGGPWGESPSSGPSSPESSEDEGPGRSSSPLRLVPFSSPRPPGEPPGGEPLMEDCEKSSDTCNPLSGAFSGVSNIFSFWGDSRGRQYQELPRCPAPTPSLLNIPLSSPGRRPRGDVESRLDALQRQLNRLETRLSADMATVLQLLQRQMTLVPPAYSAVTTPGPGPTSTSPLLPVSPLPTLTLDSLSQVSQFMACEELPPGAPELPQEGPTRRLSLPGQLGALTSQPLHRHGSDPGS

Compound `O[C@@H](COc1cccc2ncccc12)CN1CCN([C@@H]2c3ccccc3[C@@H]3[C@H](c4ccccc42)C3(F)F)CC1` [LY335979 trihydrochloride] has an IC50 of 12 µM.

Same assay, conditions: (-LOG10(IC50), µM)

Point of comparison: `CCCN1C[C@H](CSC)C[C@@H]2c3cccc4[nH]cc(c34)C[C@H]21` [Pergolide methanesulfonate], IC50 7.56 µM. Against it:
- C[C@@H]1CN(CCCn2c3ccccc3c3ccccc32)C[C@H](C)N1 [Rimcazole dihydrochloride] — within 1.5-fold, 7.86 µM
- Cc1ccsc1/C=C/C1=NCCCN1C [Morantel tartrate] — 2.6-fold higher, 19.7 µM
- ClC1=C(Cl)[C@]2(Cl)[C@@H]3[C@@H]4C[C@@H]([C@H]5O[C@@H]45)[C@@H]3[C@@]1(Cl)C2(Cl)Cl [Dieldrin] — 4.4-fold higher, 33.1 µM
- CC(CCc1ccccc1)NC(C)C(O)c1ccc(O)cc1 (centres unmarked) [Nylidrin] — within 1.5-fold, 5.56 µM
- CC(=O)c1ccc2c(c1)N(CCCN1CCC(CCO)CC1)c1ccccc1S2 [Piperacetazine] — 3.2-fold lower, 2.39 µM
- CCCCCCCCCCCCn1cc[n+](C)c1 [1-Dodecyl-3-methylimidazolium trifluoromethanesulfonate] — 1.6-fold lower, 4.61 µM
- N#Cc1sc2c(=O)c3ccccc3c(=O)c=2sc1C#N [Dithianon] — 4.1-fold higher, 30.9 µM
- O[C@@H](CNC[C@H](O)[C@H]1CCc2cc(F)ccc2O1)[C@@H]1CCc2cc(F)ccc2O1 (racemic) [rac Nebivolol hydrochloride] — 3-fold lower, 2.49 µM
- Cc1nnc2n1-c1sc(CCc3ccc(CC(C)C)cc3)cc1C(c1ccccc1Cl)=NC2C (centres unmarked) [Israpafant] — 2.5-fold higher, 19 µM
- CCOC(=O)C1(c2ccccc2)CCN(CCC(C#N)(c2ccccc2)c2ccccc2)CC1 [Diphenoxylate hydrochloride] — 12-fold lower, 0.624 µM
- C=CCNc1nc(NCC=C)nc(N2CCN(C(c3ccc(F)cc3)c3ccc(F)cc3)CC2)n1 [Almitrine dimethanesulfonate] — within 1.5-fold, 6.01 µM
- CCCCCCCCCc1ccc(O)cc1 [4-Nonylphenol, branched] — 4.5-fold higher, 34.3 µM
- Cc1ccc(S(=O)(=O)C(I)I)cc1 [Diiodomethyl 4-methylphenyl sulfone] — 6.1-fold higher, 46.2 µM
- O=C(CCCCCCCCc1cccnc1)N1CCC(C=C(c2ccccc2)c2ccccc2)CC1 [Ro 23-7637] — within 1.5-fold, 11 µM
- N#CC(CCc1ccc(Cl)cc1)(Cn1cncn1)c1ccccc1 (centres unmarked) [Fenbuconazole] — 2.4-fold higher, 18.1 µM
- CCC(=O)C(CCN(C)C)(c1ccccc1)c1ccccc1 [Normethadone] — 2-fold higher, 15.1 µM
- CCCCCCCCCCCCn1cc[n+](C)c1 [1-Dodecyl-3-methylimidazolium tetrafluoroborate] — 1.9-fold lower, 4.04 µM
- CN(Cc1ccc(C(C)(C)C)cc1)Cc1cccc2ccccc12 [Butenafine] — 1.6-fold higher, 12 µM
- O=C(N=NC(=O)OCc1ccccc1)OCc1ccccc1 [Dibenzyl diazene-1,2-dicarboxylate] — 2.9-fold higher, 21.9 µM
- CCc1oc2ccccc2c1C(=O)c1cc(Br)c(O)c(Br)c1 [Benzbromarone] — within 1.5-fold, 10.7 µM
- CCCCC(CC)COC(=O)c1ccc(O)cc1 (centres unmarked) [2-Ethylhexyl p-hydroxybenzoate] — 3.2-fold higher, 24.5 µM
- CCCCCCCCCCCCCC[P+](CCCCCC)(CCCCCC)CCCCCC [Trihexyltetradecylphosphonium chloride] — 8.6-fold lower, 0.875 µM
- O=C(CCCN1CCN(c2ccc(F)cc2)CC1)NC1c2ccccc2CSc2ccccc21 (centres unmarked) [Monatepil] — 3.8-fold lower, 2.01 µM
- CCOC(=O)[C@@H](C)Oc1ccc(Oc2nc3ccc(Cl)cc3o2)cc1 [Fenoxaprop-P-ethyl] — 3.4-fold higher, 26 µM
- CC(C(O)c1ccccc1)N(C)C/C=C/c1ccccc1 (centres unmarked) [Cinnamedrine] — 1.6-fold higher, 12 µM
- CCCCCC(C)OC(=O)COc1ccc(Cl)c2cccnc12 (centres unmarked) [Cloquintocet-mexyl] — 2.1-fold higher, 16.1 µM
- COC(=O)[C@@H]1[C@H]2C[C@H]3c4[nH]c5ccccc5c4CCN3C[C@@H]2CC[C@@H]1O [Yohimbine] — 3.2-fold higher, 23.9 µM
- CC(C)C1CCC(Cc2ccc(Cl)cc2)C1(O)Cn1cncn1 (centres unmarked) [Ipconazole] — 4.5-fold higher, 34.3 µM
- COc1ccc2cc(S(=O)(=O)N[C@H](CC(=O)N[C@H](Cc3ccc(CN4[C@H](C)CCC[C@@H]4C)cc3)C(=O)N(C)C(C)C)c3ccc4c(c3)OCO4)ccc2c1 [SSR 240612] — within 1.5-fold, 7.07 µM
- O=C(Nc1ccccc1)OCC(CN1CCCCC1)OC(=O)Nc1ccccc1 (centres unmarked) [Diperodon hydrochloride] — within 1.5-fold, 6.01 µM

Source: paper PMC8869358, “High-Throughput Chemical Screening and Structure-Based Models to Predict hERG Inhibition” (Biology, 2022)
